{"source": "patent US20050020544A1", "about": "“Bicyclic CB2 cannabinoid receptor ligands” (priority 2002, published 2005)", "key": {"male Sprague-Dawley rats": {"test_system": "male Sprague-Dawley rats", "assay": "Chronic constriction nerve injury, neuropathic pain (Von Frey filaments)", "type": "in vivo, rat", "from_the_text": "The aim of this study was to assess the potential analgesic effects of the novel bicyclic CB2 binding compounds in an animal model of neuropathic pain. A peripheral monopathy was induced in the right hind limb of rats following a chronic constriction of the sciatic nerve (Bennet, G. J. & Xie, Y-K., Pain 33: 87-107, 1988). The development of mechanical allodyna was monitored using an established behavioral test (Von Frey filaments).\nPre-surgery baseline values were ascertained as the mean of 2 pre-surgery values. Once the baseline values had been established, the animals were surgically prepared by constricting the right sciatic nerve with 4 chromic cat gut loose ligatures.\nThe design was randomized, performed in a masked fashion as to whether drug or vehicle is being given. The animals, male Sprague-Dawley rats (average body weight 240-290 g), were allowed to acclimatize to the behavioral testing equipment prior to testing. On the testing day, the animals, at least six per treatment group, were given i.p. a single dose of one of the test compounds in a volume of 2.5 ml/kg. Fifteen minutes later, a series of Von Frey filaments (pre-calibrated prior to testing) were applied to the plantar surface of the hind paw, from below. The filaments were applied in ascending order starting with the weakest force and the withdrawal threshold for both the ipsilateral and contralateral hind paws was evaluated. Each filament was indented on the mid-plantar surface of the foot to the point where it just starts to bend; this is repeated approximately 8-10 times per filament at a frequency of approximately 1 Hz. The withdrawal threshold is defined as being the lowest force of two or more consecutive Von Frey's filaments to elicit a reflex withdrawal response (i.e. a brief paw flick) and is measured in grams.\nThe results are expressed as % increase in the threshold of response to Von Frey's filaments in the test compound treated group versus the vehicle treated animals and per definition the vehicle treated group yields a null baseline value. The black column represents the morphine treated animals (4 mg/kg), the gray and the dotted column bars represent two doses of compound A (0.5 and 1 mg/kg respectively)."}, "ICR male mice": {"test_system": "ICR male mice", "assay": "Tail flick model for acute peripheral pain, i.p.", "type": "in vivo, mouse", "method_in_brief": "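Male ICR mice (≥6/group) dosed i.p. at 0.1–10 mg/kg in Cremophor EL:ethanol diluted 1:20 in saline; morphine HCl 5 mg/kg as positive control. Tail illuminated 2 cm from tip at set times post-dose; latency (s) recorded in duplicate. Read-outs: latency and % animals showing analgesia, mean±SE; ANOVA/Tukey or Fisher's exact test, p<0.05.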"}, "Male ICR mice": {"test_system": "Male ICR mice", "assay": "Psychomimetic effects: open field locomotor activity and rectal temperature", "type": "in vivo, mouse", "settings": "for hypothermia (rectal body temperature): i.v., end of open-field examination", "experimental": "Male ICR mice (25 g average body weight, Harlan, Israel) are used for a series of tests for psychotropic effects, specifically locomotor activity and rectal temperature. […] Naïve mice were used as control. Each treatment group is composed of at least 6 animals.\nAnimals were placed in an open field (60×50 cm) 5 minutes after i.v. administration of the treatment or 30 minutes after i.p. injection. Their locomotor activity was recorded using a video based computer system (ViewPoint, France). The following parameters were recorded for 3 minutes: the total distance, the time and the speed traveled by the animals. An additional parameter, rectal body temperature, was monitored at the end of the open-field examination using a thermostat thermometer (Cole Parker Model 8402-00) and a thermostat probe (YSI 400 Model 402).\nResults are expressed as mean±SE and the differences between vehicle and treatments are compared by ANOVA, followed by post-hoc Tukey's test."}, "Male Sprague Dawley rats": {"test_system": "Male Sprague Dawley rats", "assay": "Effect on the cardiovascular system (MABP, heart rate)", "type": "in vivo, rat", "experimental": "The purpose of this study was to assess the safety of the test compounds in male Sprague Dawley rats (270-350 g, Harlan, Israel). The test compounds were dissolved in vehicle, diluted 1:20 in sterile saline and injected either i.v. or i.p. at doses ranging from 0.1 to 2 mg/kg for i.v. administration or 10 to 40 mg/kg for i.p. administration, in volumes of 0.5 ml/100 g body weight. Each treatment group was composed of at least 6 animals. A cannula (PE 50, Clay Adams, USA) was implanted into the femoral artery under halothane anesthesia (induction 4% and maintenance 1%)). The vein was cannulated for drug administration. The arterial cannula was attached to a pressure transducer (Ohmeda DT-XX USA). The transducer was connected to a data acquisition system (Biopac, USA). Recordings of the heart rate (HR), mean arterial blood pressure (MABP) and electrocardiogram (ECG lead 2) were taken for 20 minutes before treatment, for the establishment of a stable baseline, up to 60 minutes following injections of the test compounds. Animals were also connected to a temperature recorder through a rectal thermistor probe (YSI Model 400, USA) and rectal temperature was monitored along the duration of the study.\nDifferences between vehicle and treatments are compared by one-way ANOVA, followed by post-hoc Newman-Keuls tests (Prism software from Graphpad, San Diego)."}, "[1]": {"settings": "10 mg/kg i.p., 330 minutes (five and a half hours)"}, "[2]": {"settings": "20 mg/kg i.p., one hour follow-up"}}}
{"molecule": "CCCCCCC(C)(C)c1cc(OC)c(C2C=C(CO)C3CC2C3(C)C)c(OC)c1", "note": "(single isomer, unassigned; (+)) [HU-308, (+) {4-[4-(1,1-dimethylheptyl)-2,6-dimethoxy-phenyl]-6,6-dimethyl-bicyclo[3.1.1]hept-2-en-2-yl}-methanol, reference compound]", "values": [{"measurement": "increase in pain threshold (Von Frey) versus vehicle", "setting": "male Sprague-Dawley rats; 5 mg/kg, separate experiment", "result": 117, "unit": "%"}]}
{"molecule": "CCCCCCC(C)(C)c1cc(O)c(C2CC(=O)C3CC2C3(C)C)c(O)c1", "note": "(single isomer, unassigned; (-)) [Compound A, (−)-4-[4-(1,1-Dimethyl-heptyl)2,6-dihydroxy-phenyl]-6,6-dimethyl-bicyclo[3.1.1)heptan-2-one]", "values": [{"measurement": "increase in pain threshold (Von Frey) versus vehicle", "setting": "male Sprague-Dawley rats; 0.5 mg/kg i.p., 15 minutes", "result": 71, "unit": "%"}, {"measurement": "increase in pain threshold (Von Frey) versus vehicle", "setting": "male Sprague-Dawley rats; 1 mg/kg i.p., 15 minutes", "result": 64, "unit": "%"}, {"measurement": "latency time", "setting": "ICR male mice; 4 mg/kg i.p., thirty minutes", "result": 4.9, "unit": "s"}, {"measurement": "% animals showing analgesia", "setting": "ICR male mice; 10 mg/kg i.p., 90 minutes", "result": "more than 80%"}, {"measurement": "latency time", "setting": "ICR male mice; 10 mg/kg i.p., 90 minutes", "result": 7.3, "unit": "s"}, {"measurement": "% animals showing increased analgesia", "setting": "ICR male mice; [1]", "result": 80, "unit": "%"}, {"measurement": "latency time", "setting": "ICR male mice; [1]", "result": 4.9, "unit": "s"}, {"measurement": "% animals showing increased analgesia", "setting": "ICR male mice; 10 mg/kg i.p., initiation of the study", "result": 100, "unit": "%"}, {"measurement": "analgesia", "setting": "ICR male mice; 8 and 10 mg/kg i.p., 330 minutes", "result": "Significant analgesia was still evident"}, {"measurement": "maximal latency", "setting": "ICR male mice; maximal tested dose 10 mg/kg i.p., 30 minutes", "result": 7.1, "unit": "s"}, {"measurement": "hypothermia (rectal body temperature)", "setting": "Male ICR mice", "result": "about 2 °C"}, {"measurement": "effect on heart rate", "setting": "Male Sprague Dawley rats; 0.1 mg/kg i.v.", "result": "minor insignificant and transient decline in HR"}, {"measurement": "decrease in MABP", "setting": "Male Sprague Dawley rats; 0.1 mg/kg i.v., 5 minutes post injection", "result": 4, "unit": "mmHg"}, {"measurement": "time for MABP back to baseline range", "setting": "Male Sprague Dawley rats; 0.5 mg/kg i.v.", "result": 30, "unit": "min"}, {"measurement": "decrease in MABP", "setting": "Male Sprague Dawley rats; 0.5 mg/kg i.v., 5 minutes", "result": "about 25 mmHg"}, {"measurement": "time for MABP back to baseline range", "setting": "Male Sprague Dawley rats; 1 mg/kg i.v.", "result": 45, "unit": "min"}, {"measurement": "decrease in MABP", "setting": "Male Sprague Dawley rats; 1 mg/kg i.v., 5 minutes", "result": "about 30 mmHg"}, {"measurement": "drop in HR", "setting": "Male Sprague Dawley rats; [2]", "result": "about 17 beats per minute"}, {"measurement": "drop in HR from baseline", "setting": "Male Sprague Dawley rats; [2]", "result": 5, "unit": "%"}, {"measurement": "maximal drop in HR", "setting": "Male Sprague Dawley rats; higher doses i.v.", "result": "about 80 beats per minute"}, {"measurement": "hypotension (decrease in MABP)", "setting": "Male Sprague Dawley rats; i.p., up to 30 mg/kg", "result": "≤ 15", "unit": "mmHg"}]}
{"molecule": "CCCCCCC(C)(C)c1cc(O)c([C@H]2CC(=O)[C@H]3C[C@@H]2C3(C)C)c(OC(=O)CCC(=O)O)c1", "note": "[Compound R, (−)-4-{4-[1,1-Dimethyl-heptyl]-2-succinate-6-hydroxy-phenyl}-6,6-dimethyl-bicyclo[3.1.1]heptan-2-one]", "values": [{"measurement": "% animals showing analgesia", "setting": "ICR male mice; 10 mg/kg i.p., 90 minutes", "result": 100, "unit": "%"}, {"measurement": "latency time", "setting": "ICR male mice; 10 mg/kg i.p., 90 minutes", "result": 8.5, "unit": "s"}, {"measurement": "% animals showing increased analgesia", "setting": "ICR male mice; [1]", "result": 100, "unit": "%"}, {"measurement": "latency time", "setting": "ICR male mice; [1]", "result": 6.8, "unit": "s"}, {"measurement": "% animals with increased resistance to pain", "setting": "ICR male mice; 10 mg/kg i.p., all along the duration of the study (5.5 hours)", "result": 100, "unit": "%"}, {"measurement": "analgesia compared with 5 mg/kg morphine", "setting": "ICR male mice; 4 and 8 mg/kg i.p.", "result": "still twice better than 5 mg/kg morphine in generating analgesia"}, {"measurement": "total distance covered", "setting": "Male ICR mice; 1, 2, 3, 4, 5 and 6 mg/kg i.v., 3 minutes open field", "result": "fluctuations in total distance covered and again this phenomenon had no statistical significance"}, {"measurement": "hypothermia (rectal body temperature)", "setting": "Male ICR mice", "result": "about 2 °C"}, {"measurement": "amplitude of HR fluctuations", "setting": "Male Sprague Dawley rats; 40 mg/kg i.p.", "result": 10, "unit": "%"}, {"measurement": "average drop in HR", "setting": "Male Sprague Dawley rats; 40 mg/kg i.p.", "result": "about 4 beats per minute"}, {"measurement": "reduction in MABP", "setting": "Male Sprague Dawley rats; i.p., 40 mg/kg", "result": "≤ 36", "unit": "mmHg"}]}
